{"source": "paper PMC4310350", "about": "(Drug Design, Development and Therapy, 2015)", "key": {"OATP1B3": {"molecular_target": "T1, OATP1B3 (Homo sapiens, UniProt Q9NPD5)", "T1 sequence (Q9NPD5 1-702)": "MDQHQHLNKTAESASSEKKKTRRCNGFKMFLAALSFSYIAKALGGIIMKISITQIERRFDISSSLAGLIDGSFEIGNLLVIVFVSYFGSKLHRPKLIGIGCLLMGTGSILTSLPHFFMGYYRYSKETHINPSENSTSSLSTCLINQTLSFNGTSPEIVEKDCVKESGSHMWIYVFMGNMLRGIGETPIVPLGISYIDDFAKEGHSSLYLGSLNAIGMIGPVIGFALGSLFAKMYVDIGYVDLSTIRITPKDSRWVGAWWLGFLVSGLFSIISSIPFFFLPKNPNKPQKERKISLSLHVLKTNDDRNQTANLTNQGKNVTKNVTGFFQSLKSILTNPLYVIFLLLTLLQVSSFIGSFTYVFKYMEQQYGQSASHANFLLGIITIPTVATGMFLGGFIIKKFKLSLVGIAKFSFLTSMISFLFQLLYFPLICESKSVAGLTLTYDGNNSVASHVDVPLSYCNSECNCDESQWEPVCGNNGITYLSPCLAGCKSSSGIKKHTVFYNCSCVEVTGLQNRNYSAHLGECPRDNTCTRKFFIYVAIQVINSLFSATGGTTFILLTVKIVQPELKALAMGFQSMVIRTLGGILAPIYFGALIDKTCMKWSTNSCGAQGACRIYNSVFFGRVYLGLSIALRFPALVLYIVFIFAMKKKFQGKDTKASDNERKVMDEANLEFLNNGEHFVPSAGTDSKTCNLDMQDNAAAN", "experiment": "Uptake in HEK293 cells overexpressing OATP1B3", "assay_type": "in vitro ADME", "settings": "OATP1B3-mediated uptake"}, "OCT2 [1]": {"molecular_target": "T2, OCT2 (Homo sapiens, UniProt O15244)", "T2 sequence (O15244 1-555)": "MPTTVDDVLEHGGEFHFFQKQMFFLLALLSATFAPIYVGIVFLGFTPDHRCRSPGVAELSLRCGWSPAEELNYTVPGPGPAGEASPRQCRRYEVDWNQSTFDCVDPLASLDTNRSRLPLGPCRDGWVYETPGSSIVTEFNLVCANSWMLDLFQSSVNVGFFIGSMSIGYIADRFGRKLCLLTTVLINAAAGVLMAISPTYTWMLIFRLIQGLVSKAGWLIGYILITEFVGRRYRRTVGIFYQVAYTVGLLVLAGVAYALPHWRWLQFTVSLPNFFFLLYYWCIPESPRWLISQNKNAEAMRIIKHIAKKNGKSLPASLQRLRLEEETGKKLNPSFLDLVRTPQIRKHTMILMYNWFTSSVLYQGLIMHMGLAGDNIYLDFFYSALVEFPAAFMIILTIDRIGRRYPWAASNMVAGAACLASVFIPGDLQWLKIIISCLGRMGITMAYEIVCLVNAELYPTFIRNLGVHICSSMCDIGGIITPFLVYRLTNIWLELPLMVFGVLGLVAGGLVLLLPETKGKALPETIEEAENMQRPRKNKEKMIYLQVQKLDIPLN", "experiment": "Uptake in HEK293 cells overexpressing OCT2", "assay_type": "in vitro ADME", "settings": "OCT2, influx"}, "BCRP [2]": {"molecular_target": "T3, BCRP (Homo sapiens, UniProt Q9UNQ0)", "T3 sequence (Q9UNQ0 1-655)": "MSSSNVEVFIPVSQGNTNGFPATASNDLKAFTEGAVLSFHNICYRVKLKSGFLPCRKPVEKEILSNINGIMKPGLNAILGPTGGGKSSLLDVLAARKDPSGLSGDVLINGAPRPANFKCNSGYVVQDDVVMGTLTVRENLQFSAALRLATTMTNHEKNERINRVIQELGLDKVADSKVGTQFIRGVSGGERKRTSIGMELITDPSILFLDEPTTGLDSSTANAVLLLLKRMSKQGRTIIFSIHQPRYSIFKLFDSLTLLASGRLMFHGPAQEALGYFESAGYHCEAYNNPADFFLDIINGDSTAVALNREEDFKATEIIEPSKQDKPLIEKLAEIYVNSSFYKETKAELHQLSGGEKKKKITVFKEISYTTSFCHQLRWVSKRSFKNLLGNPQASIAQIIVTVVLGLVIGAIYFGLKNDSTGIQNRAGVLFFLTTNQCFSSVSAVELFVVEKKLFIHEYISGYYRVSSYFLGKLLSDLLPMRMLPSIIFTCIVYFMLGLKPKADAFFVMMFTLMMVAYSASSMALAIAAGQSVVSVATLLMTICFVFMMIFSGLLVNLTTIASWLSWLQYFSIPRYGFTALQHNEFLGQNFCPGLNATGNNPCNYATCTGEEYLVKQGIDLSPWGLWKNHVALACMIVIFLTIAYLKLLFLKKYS", "experiment": "A-to-B and B-to-A transport in LLC-PK1 cells overexpressing BCRP", "assay_type": "in vitro ADME", "settings": "BCRP, efflux"}, "OCT2 [3]": {"molecular_target": "T2, OCT2", "experiment": "Inhibitory effect of catalposide on OCT2 transport activity", "assay_type": "in vitro ADME", "settings": "probe 0.1 μM [3H]MPP+, catalposide 0–100 μM"}, "BCRP [4]": {"molecular_target": "T3, BCRP", "experiment": "Inhibitory effect of catalposide on BCRP transport activity", "assay_type": "in vitro ADME", "settings": "probe 0.1 μM [3H]ES, catalposide 1–100 μM"}, "[5]": {"settings": "rats, cited from earlier work"}, "[6]": {"settings": "3-hour incubation in human plasma; cited from earlier work"}, "[7]": {"settings": "rat liver microsomes in the presence of NADPH; cited from earlier work"}, "[8]": {"settings": "human liver microsomes in the presence of NADPH; cited from earlier work"}}, "note": "Entries after “also recorded” stand apart in the source; their conditions may differ. Read-outs that look alike come from different tables or passages of the source.", "data": [{"smiles": "O=C(O[C@H]1[C@@H]2C=CO[C@@H](O[C@@H]3O[C@H](CO)[C@@H](O)[C@H](O)[C@H]3O)[C@@H]2[C@@]2(CO)O[C@@H]12)c1ccc(O)cc1", "note": "[catalposide]", "values": [{"measurement": "Hill coefficient n", "setting": "OATP1B3", "value": "~1"}, {"measurement": "Substrate", "setting": "OCT2 [1]", "value": "not involved"}, {"measurement": "Substrate", "setting": "BCRP [2]", "value": "not involved; also recorded: not a substrate"}, {"measurement": "Inhibitor", "setting": "OCT2 [3]", "value": "did not significantly inhibit"}, {"measurement": "Inhibitor", "setting": "BCRP [4]", "value": "did not significantly inhibit"}, {"measurement": "Recovery in the urine (unchanged form)", "setting": "[5]; intravenous 10 mg/kg, % of dose", "value": 9.9, "unit": "%"}, {"measurement": "Distribution volume", "setting": "[5]; intravenous", "value": "2657.2 ± 1396.9", "unit": "mL/kg"}, {"measurement": "Nonrenal clearance", "setting": "[5]; intravenous", "value": 88.2, "unit": "mL/min/kg"}, {"measurement": "Renal clearance", "setting": "[5]; intravenous", "value": 8.47, "unit": "mL/min/kg"}, {"measurement": "Systemic clearance", "setting": "[5]; intravenous", "value": "96.7 ± 44.2", "unit": "mL/min/kg"}, {"measurement": "Terminal half-life", "setting": "[5]; intravenous", "value": "19.3 ± 9.5", "unit": "min"}, {"measurement": "Stability", "setting": "[6]", "value": "remained stable"}, {"measurement": "Stability", "setting": "[7]", "value": "remained stable"}, {"measurement": "Stability", "setting": "[8]", "value": "remained stable"}]}]}
